These results are taken from patent publication US9029451B2, “Waterborne coating compositions that include 2,2,4-trimethyl-3-oxopentanoate esters as reactive coalescents” (Eastman Chemical Company, priority 2010, dated 2015).

One data set can be described thus: Density, ASTM D 1475-98. Format: physicochemical.
Data set [1] is described as follows: Hydrolytic stability in latex at 120° F., pH and Brookfield viscosity. Type of data set: physicochemical. As to conditions: Rhoplex SG-10M; for hydrolytic stability, in words: compared with industry standards. The procedure: Approximately 100 grams of either Rhoplex AC 2508 (Rohm & Haas acrylic polymer emulsion) or Rhoplex SG-10M (Rohm & Haas acrylic polymer emulsion) was weighed out into a 4 ounce jar and 10 phr (parts per hundred resin) of the coalescing aid was added (based on percent solids of the emulsion by weight). The sample was placed on lab rollers for 24 hours before the initial pH and viscosity was taken. The viscosity was measured by a Brookfield viscometer in centipoises. The sample was then placed into a lab oven at 120° F. The pH and viscosity was checked weekly for four weeks (Tables 3 & 4). Any change in the appearance of the sample such as gel particles or phase separation was recorded weekly also.

The nature of data set [2]: Water miscibility, % water in solvent method (Karl Fischer). Type of data set: physicochemical. The settings on record: stirred approx. 48 hours. The procedure: (§1) Water miscibility was measured by the following methods:
% Water in Solvent Method:
Approximately 5-10 mL of the novel coalescent was slowly added to 10-15 mL Milli-Q water in an 8-dram vial. The mixture was slowly stirred for approximately 48 hours at 100-150 rpm. The organic layer was analyzed in triplicate for percent water by Karl Fischer methodology.

The nature of data set [3]: Water miscibility, % organic in water method (gravimetric). Type of data set: physicochemical. The settings on record: saturation point. The procedure:
as §1
% Organic in Water Method:
The novel coalescent was added drop wise to 25 mL Milli-Q water and the mixture stirred at 1000 rpm for 10 minutes. If the coalescent dissolved, an additional drop or drops were added until traces of the organic solvent remained after the mixture had been stirred for 20 minutes. The percent organic solvent at the saturation point was determined gravimetrically.

The nature of data set [4]: MFFT testing, coalescing efficiency. As to conditions: linear regression. As to the method:
The MFFT samples were prepared by weighing out 20 grams (+/−0.01 g) of emulsion into 50 ml beakers. The beakers of emulsion were placed on magnetic stirrers and the coalescing aid added dropwise by pipet. The weight of the drops were determined by adding 40 drops of the coalescing aid to a tared weighing dish, then the weight per drop was calculated by taking an average of the total weight (total weight divided by 40 drops). The coalescing aid was added to the emulsion based on solids by weight. The MFFT samples were allowed to stir for approximately 15 minutes, transferred to 8 dram vials and placed onto lab rollers and allowed to equilibrate for at least 24 hours. The samples were then drawn down on the MFFT bar, which is typically set on range #2 (0° to 18° C.), and the films allowed to dry. The areas in which the films have stopped cracking are visually determined and the MFFT value is read from the scale on the instrument and converted to degrees Fahrenheit. Linear Regression was used to calculate the amount of coalescing aid required to lower the films MFFT to 40° F. In Table #5, the phr40 values (parts per hundred resin based on solids by weight) are the amount of coalescing aid required to reduce the MFFT to 40° F. A lower number indicates the coalescent is more efficient at reducing the MFFT of the film.

Data set [5] can be described thus: Boiling point of coalescent. Format: physicochemical. As to the method: The novel compounds were evaluated for their coalescing properties and compared to 2,2,4-trimethylpentane-1,3-diol monoisobutyrate (Texanol) and Optifilm Enhancer 400 (OE 400), two coalescents that are widely used in industry (Table 2).
Data set [6] in a line: % non-volatile, 110° C. for 1 hour (ASTM D2369). Type of data set: physicochemical. The settings on record: 110° C. for 1 hour. As to the method:
2,2,4-trimethyl-3-oxopentanoate esters useful as reactive coalescents according to the invention include those having a weight percent volatile content of less than 50%, as measured according to ASTM Method D2369. This test may be conducted generally by heating the sample in a forced air oven at 110° C. for 60 minutes. The weight loss after the test is deemed to result from a loss of volatiles originally present in the sample; the percent volatile present in the original sample may then be calculated. Although the cited test can be conducted on coating compositions containing other components such as latex polymers, the values cited herein may be obtained from a sample of the coalescent itself. Thus, the weight percent volatile of a coalescent may be used herein as a yardstick to measure the amount of VOC the coalescent would contribute to the VOC of a coating composition.

SMILES strings stand for the structures.

On to `CCCCOCCOCCOC(=O)C(C)(C)C(=O)C(C)C` [Example 5, 2-(2-Butoxyethoxy)ethyl 2,2,4-trimethyl-3-oxopentanoate], for which, in “Density, ASTM D 1475-98”, the “Density (lbs/gal)” value came out at 8.02 lbs/gal. The “Viscosity (cps)” value was 548 cps in data set [1] (10 phr coalescent, Initial); 631 cps in data set [1] (10 phr, 120° F., 1 week); 461 cps in data set [1] (10 phr, 120° F., 2 weeks); 458 cps in data set [1] (10 phr, 120° F., 3 weeks); 511 cps in data set [1] (10 phr, 120° F., 4 weeks). The pH in data set [1] (10 phr coalescent, Initial) is 8.6; in data set [1] (10 phr, 120° F., 1 week), 8.3; in data set [1] (10 phr, 120° F., 2 weeks), 8.7; in data set [1] (10 phr, 120° F., 3 weeks) it was 8.6; in data set [1] (10 phr, 120° F., 4 weeks) it was 8.2. In addition, the “hydrolytic stability, in words” value in data set [1] was “better than the industry standards”. Also, the “Water Miscibility % water in solvent layer” value in data set [2] was 0.40%. Besides, the “Water Miscibility % solvent in water layer” value in data set [3] is reported as 0.02%. Further, the “phr of Coalescent required to lower MFFT to 40° F.” value in data set [4] (latex Acronal 296D) was determined as 4.2 phr; in data set [4] (latex Rhoplex SG-10M) it was 4.6 phr; in data set [4] (latex Ucar 379G), 0.9 phr. Besides, the “Boiling Point (° C. @ 760 torr)” value in data set [5] was found to be 272.1 °C. For the same compound, in data set [6], the “% non-volatile @ 110° C. for 1 hour” value was 64.0%.

Take `CCCCC(CC)COCCOC(=O)C(C)(C)C(=O)C(C)C` (centres unmarked) [Example 6, 2-(2-Ethylhexyloxy)ethyl 2,2,4-trimethyl-3-oxopentanoate]: in the data set “Density, ASTM D 1475-98”, the “Density (lbs/gal)” value was found to be 7.80 lbs/gal. For the same compound, the “Viscosity (cps)” value in data set [1] (10 phr coalescent, Initial) came to 474 cps; in data set [1] (10 phr, 120° F., 1 week), 585 cps; in data set [1] (10 phr, 120° F., 2 weeks), 484 cps; in data set [1] (10 phr, 120° F., 3 weeks) it was 347 cps; in data set [1] (10 phr, 120° F., 4 weeks), 461 cps. Besides, the pH came to 8.6 in data set [1] (10 phr coalescent, Initial); 8.4 in data set [1] (10 phr, 120° F., 1 week); 8.8 in data set [1] (10 phr, 120° F., 2 weeks); 8.8 in data set [1] (10 phr, 120° F., 3 weeks); 8.4 in data set [1] (10 phr, 120° F., 4 weeks). In addition, in data set [1], the “hydrolytic stability, in words” value is “better than the industry standards”. Moreover, the “Water Miscibility % water in solvent layer” value in data set [2] is listed as 0.03%. The “Water Miscibility % solvent in water layer” value in data set [3] was 0.00%. For the same compound, the entries for the “phr of Coalescent required to lower MFFT to 40° F.” value in data set [4] (latex Acronal 296D), in data set [4] (latex Rhoplex SG-10M) and in data set [4] (latex Ucar 379G) were 5.0 phr, 4.0 phr and 1.3 phr, respectively. Moreover, the “Boiling Point (° C. @ 760 torr)” value in data set [5] is 281.6 °C. Further, in data set [6], the “% non-volatile @ 110° C. for 1 hour” value was 58.7%.
